20 molecules from patent US20230141101A1, “PDE4 INHIBITOR COMPOUND AND MEDICAL USE THEREOF” (Suzhou Longbotai Pharmaceuticals Co., Ltd., priority 2020, published 2023) can be followed below.

Format in all cases: biochemical
One experiment deals with T1, PDE4A1A (Homo sapiens, UniProt P27815).
T1 construct: purchased BPS 60040
As to the kind of experiment: PDE4 inhibitory activity assay (FAM-cAMP enzymatic reaction), PDE4A1A. A digest of the protocol: (§1)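 Read-out: fluorescence-based detection of FAM-cAMP turnover on a multilabel counter, with IC50 derived by fitting inhibition rates. The reaction ran 30 min at room temperature after a 15-min enzyme–compound preincubation, followed by stopping and 60 min further incubation.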

The target of the next experiment is T2, PDE4B1 (Homo sapiens, UniProt Q07343).
T2 construct: purchased BPS 60041
As to the kind of experiment: PDE4 inhibitory activity assay (FAM-cAMP enzymatic reaction), PDE4B1. The method in brief:
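Each isoform is incubated with test compound for 15 min at room temperature before FAM-cAMP substrate starts a 30-min reaction.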

In a further experiment the target is PDE4D2 (Homo sapiens, UniProt Q08499). As to the kind of experiment: PDE4 inhibitory activity assay (FAM-cAMP enzymatic reaction), PDE4D2. The method in brief:
as §1

The mark [1] stands for this setting: compared with Apremilast and Example 11 of WO2018036470 (WX011).

Molecules are shown by their SMILES.

Chain of PDE4D2 (Q08499 303-809): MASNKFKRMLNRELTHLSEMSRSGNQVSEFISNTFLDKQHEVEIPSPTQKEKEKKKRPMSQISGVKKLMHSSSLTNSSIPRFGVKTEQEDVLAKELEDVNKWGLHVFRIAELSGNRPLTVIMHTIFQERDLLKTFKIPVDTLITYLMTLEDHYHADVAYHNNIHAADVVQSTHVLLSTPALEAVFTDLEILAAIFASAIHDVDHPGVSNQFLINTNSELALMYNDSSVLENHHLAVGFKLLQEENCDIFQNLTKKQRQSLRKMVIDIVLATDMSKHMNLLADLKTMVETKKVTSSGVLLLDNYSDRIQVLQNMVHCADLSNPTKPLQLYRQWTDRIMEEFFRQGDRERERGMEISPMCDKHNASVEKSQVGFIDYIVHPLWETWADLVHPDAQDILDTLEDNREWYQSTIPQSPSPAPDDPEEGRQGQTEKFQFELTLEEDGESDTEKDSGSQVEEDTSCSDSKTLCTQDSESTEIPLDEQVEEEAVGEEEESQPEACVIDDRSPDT
T2 sequence (Q07343 whole entry): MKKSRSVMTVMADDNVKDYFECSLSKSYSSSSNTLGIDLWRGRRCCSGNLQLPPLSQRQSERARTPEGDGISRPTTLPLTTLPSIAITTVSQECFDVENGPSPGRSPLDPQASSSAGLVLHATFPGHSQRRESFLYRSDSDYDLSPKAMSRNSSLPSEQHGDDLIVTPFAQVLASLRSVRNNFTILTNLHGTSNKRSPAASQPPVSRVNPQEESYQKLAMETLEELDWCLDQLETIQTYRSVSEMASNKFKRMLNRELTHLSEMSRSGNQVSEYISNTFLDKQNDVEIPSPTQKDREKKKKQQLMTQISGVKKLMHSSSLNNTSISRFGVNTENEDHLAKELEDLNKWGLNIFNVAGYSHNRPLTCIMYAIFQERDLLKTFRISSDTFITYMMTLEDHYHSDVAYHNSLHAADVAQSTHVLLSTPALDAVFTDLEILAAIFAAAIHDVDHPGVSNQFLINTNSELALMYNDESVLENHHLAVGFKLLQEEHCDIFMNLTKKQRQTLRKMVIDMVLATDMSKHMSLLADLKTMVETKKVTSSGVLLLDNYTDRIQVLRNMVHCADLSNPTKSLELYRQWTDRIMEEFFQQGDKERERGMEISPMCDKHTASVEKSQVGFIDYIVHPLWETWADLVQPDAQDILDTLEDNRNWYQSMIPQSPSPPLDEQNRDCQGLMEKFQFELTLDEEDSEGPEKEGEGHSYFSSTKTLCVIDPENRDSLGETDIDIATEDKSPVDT
T1 sequence (P27815 1-647 isoform P27815-4): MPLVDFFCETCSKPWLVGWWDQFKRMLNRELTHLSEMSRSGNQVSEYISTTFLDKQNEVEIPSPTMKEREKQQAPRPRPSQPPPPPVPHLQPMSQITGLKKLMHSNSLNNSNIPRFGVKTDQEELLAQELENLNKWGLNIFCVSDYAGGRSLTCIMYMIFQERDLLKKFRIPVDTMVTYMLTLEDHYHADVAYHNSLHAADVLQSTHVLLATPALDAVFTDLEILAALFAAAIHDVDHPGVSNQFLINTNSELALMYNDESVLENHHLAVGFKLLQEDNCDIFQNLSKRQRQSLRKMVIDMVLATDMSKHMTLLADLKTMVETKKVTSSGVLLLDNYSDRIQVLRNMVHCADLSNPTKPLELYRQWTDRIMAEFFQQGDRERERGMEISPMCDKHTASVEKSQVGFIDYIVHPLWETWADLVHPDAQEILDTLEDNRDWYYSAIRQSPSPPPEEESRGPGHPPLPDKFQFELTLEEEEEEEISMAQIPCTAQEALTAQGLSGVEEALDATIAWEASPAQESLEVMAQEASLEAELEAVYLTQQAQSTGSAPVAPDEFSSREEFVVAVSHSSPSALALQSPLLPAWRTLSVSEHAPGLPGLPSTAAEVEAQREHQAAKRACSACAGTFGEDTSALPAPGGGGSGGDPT

For `CCOc1nc([C@@H](CS(C)(=O)=O)n2c(=O)[nH]c3cc(-c4c(F)cccc4OC)ccc32)ccc1OC` [Ex. 190, (S)-5-(6-fluoro-2-methoxyphenyl)-1-(1-(6-ethoxy-5-methoxypyridin-2-yl)-2-(methylsulfonyl)ethyl)-1H-benzo[d]imidazol-2(3H)-one], at PDE4A1A, the “PDE4 A1 inhibitory effect at 20 nM” value is recorded as “+”. Moreover, at PDE4B1, the “PDE4 B1 inhibitory effect at 20 nM” value is listed as “+”. In addition, the “PDE4 D2 inhibitory effect at 20 nM” value at PDE4D2 is “+”.
With `CCOc1nc([C@@H](CS(C)(=O)=O)N2C(=O)c3csc([N+](=O)[O-])c3C2=O)ccc1OC` [Ex. 222, (S)-5-(1-(6-ethoxy-5-methoxypyridin-2-yl)-2-(methylsulfonyl)ethyl)-1-nitro-4H-thieno[3,4-c]pyrrol-4,6(5H)-dione], the “PDE4 A1 inhibitory effect at 20 nM” value on PDE4A1A is given as “+”. For the same molecule, the “PDE4 B1 inhibitory effect at 20 nM” value at PDE4B1 was “+”. For the same molecule, the “PDE4 D2 inhibitory effect at 20 nM” value on PDE4D2 was “+”.
Consider `CCOc1nc([C@@H](CS(C)(=O)=O)n2c(=O)n(CC(F)(F)F)c3c(C)c(-c4ccccc4F)cnc32)ccc1OC` [Ex. 51, (S)-3-(1-(6-ethoxy-5-methoxypyridin-2-yl)-2-(methylsulfonyl)ethyl)-6-(2-fluorophenyl)-7-methyl-1-(2,2,2-trifluoroethyl)-1H-imidazo[4,5-b]pyridin-2(3H)-one], for which the “PDE4 A1 inhibitory effect at 20 nM” value on PDE4A1A is “+”. Moreover, on PDE4B1, the “PDE4 B1 inhibitory effect at 20 nM” value is on record as “+”. Further, the “PDE4 D2 inhibitory effect at 20 nM” value on PDE4D2 is “+”.
For `CCOc1nc([C@@H](CS(C)(=O)=O)n2c(=O)[nH]c3cc(-c4ccccc4CC)ccc32)ccc1OC` [Ex. 150, (S)-1-(1-(6-ethoxy-5-methoxypyridin-2-yl)-2-(methylsulfonyl)ethyl)-5-(2-ethylphenyl)-1H-benzo[d]imidazol-2(3H)-one], the “PDE4 A1 inhibitory effect at 20 nM” value on PDE4A1A is recorded as “+”. In addition, the “PDE4 B1 inhibitory effect at 20 nM” value on PDE4B1 is “+”. Besides, the “PDE4 D2 inhibitory effect at 20 nM” value at PDE4D2 is given as “+”.
Turning to `CCOc1nc([C@@H](CS(C)(=O)=O)n2c(=O)[nH]c3c(C)c(-c4ccccc4F)cnc32)ccc1OC(F)F` [Ex. 60, (S)-3-(1-(5-(difluoromethoxy)-6-ethoxypyridin-2-yl)-2-(methylsulfonyl)ethyl)-6-(2-fluorophenyl)-7-methyl-1H-imidazo[4,5-b]pyridin-2(3H)-one], on PDE4A1A, the “PDE4 A1 inhibitory effect at 20 nM” value is listed as “+”. The “PDE4 B1 inhibitory effect at 20 nM” value at PDE4B1 was “+”. On PDE4D2, the “PDE4 D2 inhibitory effect at 20 nM” value is “+”.
For `CCOc1nc([C@@H](CS(C)(=O)=O)n2c(=O)[nH]c3cc(-c4cc(F)ccc4OC)ccc32)ccc1OC` [Ex. 186, (S)-5-(5-fluoro-2-methoxyphenyl)-1-(1-(6-ethoxy-5-methoxypyridin-2-yl)-2-(methylsulfonyl)ethyl)-1H-benzo[d]imidazol-2(3H)-one], on PDE4A1A, the “PDE4 A1 inhibitory effect at 20 nM” value is “+”. Also, the “PDE4 B1 inhibitory effect at 20 nM” value at PDE4B1 was “+”. For the same molecule, the “PDE4 D2 inhibitory effect at 20 nM” value at PDE4D2 is “+”.
Turning to `CCOc1nc([C@@H](CS(C)(=O)=O)n2c(=O)n(C)c3cc(-c4cccc(F)c4C)ccc32)ccc1OC` [Ex. 174, (S)-5-(3-fluoro-2-methylphenyl)-1-(1-(6-ethoxy-5-methoxypyridin-2-yl)-2-(methylsulfonyl)ethyl)-3-methyl-1H-benzo[d]imidazol-2(3H)-one], the “PDE4 A1 inhibitory effect at 20 nM” value on PDE4A1A is given as “+”. The “PDE4 B1 inhibitory effect at 20 nM” value at PDE4B1 is “+”. Also, the “PDE4 D2 inhibitory effect at 20 nM” value on PDE4D2 was “+”.
For the molecule `CCOc1nc([C@@H](CS(C)(=O)=O)N2C(=O)c3csc(N)c3C2=O)ccc1OC` [Ex. 223, (S)-1-amino-5-(1-(6-ethoxy-5-methoxypyridin-2-yl)-2-(methylsulfonyl)ethyl)-4H-thieno[3,4-c]pyrrol-4,6 (5H)-dione], the “PDE4 A1 inhibitory effect at 20 nM” value at PDE4A1A is “+”. Further, the “PDE4 B1 inhibitory effect at 20 nM” value at PDE4B1 is “+”. Also, the “PDE4 D2 inhibitory effect at 20 nM” value at PDE4D2 is given as “+”.
In the case of `CCOc1nc([C@@H](CS(C)(=O)=O)n2c(=O)[nH]c3cc(-c4ccc(OC)cc4F)ccc32)ccc1OC` [Ex. 184, (S)-5-(2-fluoro-4-methoxyphenyl)-1-(1-(6-ethoxy-5-methoxypyridin-2-yl)-2-(methylsulfonyl)ethyl)-1H-benzo[d]imidazol-2(3H)-one], the “PDE4 A1 inhibitory effect at 20 nM” value on PDE4A1A is given as “+”. The “PDE4 B1 inhibitory effect at 20 nM” value at PDE4B1 was “+”. Also, at PDE4D2, the “PDE4 D2 inhibitory effect at 20 nM” value was “+”.
Regarding `CCOc1nc([C@@H](CS(C)(=O)=O)n2c(=O)[nH]c3cc(-c4cccc(F)c4C)ccc32)ccc1OC` [Ex. 173, (S)-5-(3-fluoro-2-methylphenyl)-1-(1-(6-ethoxy-5-methoxypyridin-2-yl)-2-(methylsulfonyl)ethyl)-1H-benzo[d]imidazol-2(3H)-one], on PDE4A1A, the “PDE4 A1 inhibitory effect at 20 nM” value is recorded as “+”. In addition, the “PDE4 B1 inhibitory effect at 20 nM” value at PDE4B1 is reported as “+”. In addition, the “PDE4 D2 inhibitory effect at 20 nM” value on PDE4D2 was “+”.
`CCOc1nc([C@@H](CS(C)(=O)=O)n2c(=O)[nH]c3cc(-c4ccc(F)cc4F)cnc32)ccc1OC` [Ex. 94, (S)-6-(2,4-difluorophenyl)-3-(1-(6-ethoxy-5-methoxypyridin-2-yl)-2-(methylsulfonyl)ethyl)-1H-imidazo[4,5-b]pyridin-2(3H)-one]: the “PDE4 A1 inhibitory effect at 20 nM” value at PDE4A1A was “+”. Moreover, at PDE4B1, the “PDE4 B1 inhibitory effect at 20 nM” value is reported as “+”. For the same molecule, at PDE4D2, the “PDE4 D2 inhibitory effect at 20 nM” value is recorded as “+”.
With `CCOc1nc([C@@H](CS(C)(=O)=O)n2c(=O)n(C)c3cc(-c4ccc(C)cc4C)cnc32)ccc1OC` [Ex. 100, (S)-6-(2,4-dimethylphenyl)-3-(1-(6-ethoxy-5-methoxypyridin-2-yl)-2-(methylsulfonyl)ethyl)-1-methyl-1H-imidazo[4,5-b]pyridin-2(3H)-one], at PDE4A1A, the “PDE4 A1 inhibitory effect at 20 nM” value was “+”. In addition, at PDE4B1, the “PDE4 B1 inhibitory effect at 20 nM” value is on record as “+”. Moreover, the “PDE4 D2 inhibitory effect at 20 nM” value at PDE4D2 was “+”.
Take `CCOc1nc([C@@H](CS(C)(=O)=O)n2c(=O)n(C)c3cc(-c4cccc(F)c4C)cnc32)ccc1OC` [Ex. 112, (S)-6-(3-fluoro-2-methylphenyl)-3-(1-(6-ethoxy-5-methoxypyridin-2-yl)-2-(methylsulfonyl)ethyl)-1-methyl-1H-imidazo[4,5-b]pyridin-2(3H)-one]: the “PDE4 A1 inhibitory effect at 20 nM” value on PDE4A1A is recorded as “+”. On PDE4B1, the “PDE4 B1 inhibitory effect at 20 nM” value is “+”. Besides, the “PDE4 D2 inhibitory effect at 20 nM” value at PDE4D2 is “+”.
As a reminder, the IC50 is the concentration that gives 50% inhibition. `CCOc1nc([C@@H](CS(C)(=O)=O)n2c(=O)[nH]c3c(C)c(-c4ccccc4C)cnc32)ccc1OC` [Ex. 8, (S)-3-(1-(6-ethoxy-5-methoxypyridin-2-yl)-2-(methylsulfonyl)ethyl)-7-methyl-6-(o-methylphenyl)-1H-imidazo[4,5-b]pyridin-2(3H)-one]: the “inhibitory activity against PDE4A1A compared with Apremilast and WX011” value at PDE4A1A (setting [1]) is recorded as “significantly enhanced inhibitory activity”. Besides, at PDE4B1 (setting [1]), the “inhibitory activity against PDE4B1 compared with Apremilast and WX011” value is reported as “significantly enhanced inhibitory activity”. At PDE4D2 (setting [1]), the “inhibitory activity against PDE4D2 compared with Apremilast and WX011” value is listed as “significantly enhanced inhibitory activity”. Moreover, the concentration for half-maximal inhibition (IC50) on PDE4D2 (read-out: PDE4 D2 inhibitory activity (IC50 value)) was found to be 3.8 nM.
With `CCOc1nc([C@@H](CS(C)(=O)=O)n2c(=O)[nH]c3c(C)c(-c4cc(F)c(F)cc4F)cnc32)ccc1OC` [Ex. 29, (S)-6-(2,4,5-trifluorophenyl)-3-(1-(6-ethoxy-5-methoxypyridin-2-yl)-2-(methylsulfonyl)ethyl)-7-methyl-1H-imidazo[4,5-b]pyridin-2(3H)-one], the “PDE4 A1 inhibitory effect at 20 nM” value on PDE4A1A is “+”. At PDE4B1, the “PDE4 B1 inhibitory effect at 20 nM” value was “+”. Moreover, the “PDE4 D2 inhibitory effect at 20 nM” value at PDE4D2 is recorded as “+”.
`CCOc1nc([C@H](CS(C)(=O)=O)n2c(=O)[nH]c3cc(-c4ccccc4F)ccc32)ccc1OC` [Ex. 134, (R)-1-(1-(6-ethoxy-5-methoxypyridin-2-yl)-2-(methylsulfonyl)ethyl)-5-(2-fluorophenyl)-1H-benzo[d]imidazol-2(3H)-one]: the “PDE4 A1 inhibitory effect at 20 nM” value at PDE4A1A was “+”. Also, on PDE4B1, the “PDE4 B1 inhibitory effect at 20 nM” value is reported as “+”. Further, the “PDE4 D2 inhibitory effect at 20 nM” value at PDE4D2 is “+”.
Turning to `CCOc1nc([C@@H](CS(C)(=O)=O)n2c(=O)[nH]c3cc(-c4ccc(F)cc4OC)ccc32)ccc1OC` [Ex. 188, (S)-5-(4-fluoro-2-methoxyphenyl)-1-(1-(6-ethoxy-5-methoxypyridin-2-yl)-2-(methylsulfonyl)ethyl)-1H-benzo[d]imidazol-2(3H)-one], on PDE4A1A, the “PDE4 A1 inhibitory effect at 20 nM” value is reported as “+”. Further, the “PDE4 B1 inhibitory effect at 20 nM” value at PDE4B1 is given as “+”. For the same molecule, the “PDE4 D2 inhibitory effect at 20 nM” value on PDE4D2 is “+”.
In the case of `CCOc1nc([C@@H](CS(C)(=O)=O)n2c(=O)[nH]c3c(C)c(-c4c(C)cccc4C)cnc32)ccc1OC` [Ex. 34, (S)-6-(2,6-dimethylphenyl)-3-(1-(6-ethoxy-5-methoxypyridin-2-yl)-2-(methylsulfonyl)ethyl)-7-methyl-1H-imidazo[4,5-b]pyridin-2(3H)-one], the “PDE4 A1 inhibitory effect at 20 nM” value on PDE4A1A is reported as “+”. For the same molecule, the “PDE4 B1 inhibitory effect at 20 nM” value at PDE4B1 was “+”. Also, on PDE4D2, the “PDE4 D2 inhibitory effect at 20 nM” value is recorded as “+”.
With `CCOc1nc([C@@H](CS(C)(=O)=O)n2c(=O)n(CC)c3cc(-c4ccccn4)ccc32)ccc1OC` [Ex. 197, (S)-1-(1-(6-ethoxy-5-methoxypyridin-2-yl)-2-(methylsulfonyl)ethyl)-3-ethyl-5-(pyridin-2-yl)-1H-benzo[d]imidazol-2(3H)-one], the “PDE4 A1 inhibitory effect at 20 nM” value at PDE4A1A was “+”. Also, the “PDE4 B1 inhibitory effect at 20 nM” value on PDE4B1 is “+”. Moreover, on PDE4D2, the “PDE4 D2 inhibitory effect at 20 nM” value is listed as “+”.
For the molecule `CCOc1nc([C@@H](CS(C)(=O)=O)n2c(=O)[nH]c3c(C)c(-c4ccc(F)cc4)cnc32)ccc1OC` [Ex. 6, (S)-3-(1-(6-ethoxy-5-methoxypyridin-2-yl)-2-(methylsulfonyl)ethyl)-6-(4-fluorophenyl)-7-methyl-1H-imidazo[4,5-b]pyridin-2(3H)-one], the “PDE4 A1 inhibitory effect at 20 nM” value on PDE4A1A is recorded as “+”. Besides, the “PDE4 B1 inhibitory effect at 20 nM” value on PDE4B1 was “+”. Besides, the “PDE4 D2 inhibitory effect at 20 nM” value on PDE4D2 was “=”.
